From patent publication US10196381B2, “Benzimidazole-2-piperazine heterocyclic compound, pharmaceutical composition containing the same, preparation method and use thereof” (Shanghai Huilun Life Science & Technology Co., Ltd., priority 2013, dated 2019)

Target: PARP-1 enzyme (Homo sapiens (Human), UniProt P09874)
Assay: PARP enzyme activity assay (HT Universal Chemiluminescent PARP Assay Kit, histone-coated wells)
Assay type: biochemical
Conditions: for inhibition at 0.03 µM: read-out: Inhibition (%) at 30 nM; for inhibition at 0.1 µM: read-out: Inhibition (%) at 100 nM
Protocol: PARP is an enzyme responsible for post-translational modification, which may be activated by means of DNA damage. The process catalyzed by PARP in vivo is mainly NAD-dependent poly(ADP-ribosyl)ation, in which the substrates are mainly some nuclear proteins including PARP, one example of which is histone. In the present invention, the PARP activity is assayed by determining the poly(ADP-ribosyl)ation degree of histone coated in a 96-well plate in the presence of NAD, and the PARP activity under the action of a PARP inhibitor is correspondingly assayed, thereby evaluating the degree of inhibition of the compounds on PARP activity. Poly(ADP-ribosyl)ation of nuclear proteins is a post-translational modification occurred in response to DNA damage. PARP is the abbreviation of poly(ADP-ribose)polymerase, which catalyzes the attachment of poly(ADP-ribose) to an adjacent nuclear protein in the presence of NAD, thus eliciting a mechanism of DNA repair through base excision repair pathway. The level of biotin-labeled ADP-ribose binding to histone can be detected by using the HT Universal Chemiluminescent PARP Assay Kit commercially available from Trevigen Corp. […] HT Universal Chemiluminescent PARP Assay Kit with Histone-coated Strip Wells, commercially available from Trevigen (US), Catalog #: 4676-096-K. […] 4. The PARP enzyme was carefully diluted with the 1×PARP buffer just before use, the diluted enzyme solution should be used as quickly as possible and the remaining solution should be discarded. […] 2. […] 1. […] 2. […] 4. […] After washing, equal volume of the PeroxyGlow A and B solutions were uniformly mixed, 100 μl of the solution was added to each well, and the chemiluminescent signals were recorded on a plate reader immediately. The readout of each well is converted into the percent inhibition. […] Note: the readout of the positive control well is designated as 100% enzyme activity; the readout of the negative control well is designated as 0% enzyme activity; and the activity X refers to the readout from respective concentration of each sample.

Sequence of PARP-1 enzyme (P09874 whole entry): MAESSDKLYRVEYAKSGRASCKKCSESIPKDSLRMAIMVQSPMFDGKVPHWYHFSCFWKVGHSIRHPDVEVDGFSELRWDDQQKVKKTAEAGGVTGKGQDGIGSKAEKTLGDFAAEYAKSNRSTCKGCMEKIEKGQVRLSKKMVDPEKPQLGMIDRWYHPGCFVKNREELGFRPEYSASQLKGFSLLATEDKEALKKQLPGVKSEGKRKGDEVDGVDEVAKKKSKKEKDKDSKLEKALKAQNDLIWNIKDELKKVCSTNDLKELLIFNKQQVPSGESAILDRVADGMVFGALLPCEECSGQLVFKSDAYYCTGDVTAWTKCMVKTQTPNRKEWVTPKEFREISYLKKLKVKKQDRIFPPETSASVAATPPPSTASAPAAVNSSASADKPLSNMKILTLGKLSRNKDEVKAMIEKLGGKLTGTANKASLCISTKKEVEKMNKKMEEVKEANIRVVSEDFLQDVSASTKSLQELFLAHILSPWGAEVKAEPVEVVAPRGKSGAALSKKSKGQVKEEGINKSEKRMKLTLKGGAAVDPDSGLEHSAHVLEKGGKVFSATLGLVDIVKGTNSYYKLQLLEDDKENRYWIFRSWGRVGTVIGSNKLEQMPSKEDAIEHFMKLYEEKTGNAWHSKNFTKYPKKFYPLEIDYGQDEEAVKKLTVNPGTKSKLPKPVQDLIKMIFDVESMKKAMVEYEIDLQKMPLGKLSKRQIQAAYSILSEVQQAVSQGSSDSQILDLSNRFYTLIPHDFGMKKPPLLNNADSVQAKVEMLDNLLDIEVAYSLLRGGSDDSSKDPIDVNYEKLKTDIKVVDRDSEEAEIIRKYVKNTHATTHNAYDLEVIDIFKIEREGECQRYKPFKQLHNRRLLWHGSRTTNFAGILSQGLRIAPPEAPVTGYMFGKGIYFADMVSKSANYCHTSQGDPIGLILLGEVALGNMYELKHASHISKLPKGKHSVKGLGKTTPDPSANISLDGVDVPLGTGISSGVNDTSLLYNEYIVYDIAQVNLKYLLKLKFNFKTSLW

SMILES	inhibition at 0.03 µM	inhibition at 0.1 µM
NC(=O)c1cccc2[nH]c(N3CCN(c4ncccn4)CC3)nc12 [Compound (1), 2-(4-(pyrimidin-2-yl)piperazin-1-yl)-1H-benzimidazole-4-carboxamide]	59%	76%
NC(=O)c1cccc2[nH]c(N3CCN(c4ncc(F)cn4)CC3)nc12 [Compound (2), 2-(4-(5-fluoropyrimidin-2-yl)piperazin-1-yl)-1H-benzimidazole-4-carboxamide]	42%	69%
CCNc1cnc(N2CCN(c3nc4c(C(N)=O)cccc4[nH]3)CC2)nc1 [Compound (3), 2-(4-(5-ethylaminopyrimidin-2-yl)piperazin-1-yl)-1H-benzimidazole-4-carboxamide]	6%	13%
CC(=O)Nc1cnc(N2CCN(c3nc4c(C(N)=O)cccc4[nH]3)CC2)nc1 [Compound (4), 2-(4-(5-acetamidopyrimidin-2-yl)piperazin-1-yl)-1H-benzimidazole-4-carboxamide]	27%	53%
COc1cnc(N2CCN(c3nc4c(C(N)=O)cccc4[nH]3)CC2)nc1 [Compound (5), 2-(4-(5-methoxypyrimidin-2-yl)piperazin-1-yl)-1H-benzimidazole-4-carboxamide]	32%	60%
NC(=O)c1cccc2[nH]c(N3CCN(c4ncc(N)cn4)CC3)nc12 [Compound (6), 2-(4-(5-aminopyrimidin-2-yl)piperazin-1-yl)-1H-benzimidazole-4-carboxamide]	26%	54%
NC(=O)c1cccc2[nH]c(N3CCN(c4ccncn4)CC3)nc12 [Compound (7), 2-(4-(pyrimidin-4-yl)piperazin-1-yl)-1H-benzimidazole-4-carboxamide]	73%	85%
CCNc1cccnc1N1CCN(c2nc3c(C(N)=O)cccc3[nH]2)CC1 [Compound (8), 2-(4-(3-ethylaminopyridin-2-yl)piperazin-1-yl)-1H-benzimidazole-4-carboxamide]	8%	16%
NC(=O)c1cccc2[nH]c(N3CCN(c4nccc(C(F)(F)F)n4)CC3)nc12 [Compound (9), 2-(4-(4-trifluoromethylpyrimidin-2-yl)piperazin-1-yl)-1H-benzimidazole-4-carboxamide]	16%	31%
NC(=O)c1cccc2[nH]c(N3CCN(c4cc(C(F)(F)F)ncn4)CC3)nc12 [Compound (10), 2-(4-(6-trifluoromethylpyrimidin-4-yl)piperazin-1-yl)-1H-benzimidazole-4-carboxamide]	38%	64%
CNC(=O)c1ccc(N2CCN(c3nc4c(C(N)=O)cccc4[nH]3)CC2)nc1 [Compound (11), 2-(4-(5-methylcarbamoylpyridin-2-yl)piperazin-1-yl)-1H-benzimidazole-4-carboxamide]	59%	78%
NC(=O)c1ccc(N2CCN(c3nc4c(C(N)=O)cccc4[nH]3)CC2)nc1 [Compound (12), 2-(4-(5-carbamoylpyridin-2-yl)piperazin-1-yl)-1H-benzimidazole-4-carboxamide]	57%	77%
NC(=O)c1cccc2[nH]c(N3CCN(c4ccnc(C(F)(F)F)c4)CC3)nc12 [Compound (13), 2-(4-(2-trifluoromethylpyridin-4-yl)piperazin-1-yl)-1H-benzimidazole-4-carboxamide]	43%	69%
N#Cc1cnc(N2CCN(c3nc4c(C(N)=O)cccc4[nH]3)CC2)nc1 [Compound (14), 2-(4-(5-cyanopyrimidin-2-yl)piperazin-1-yl)-1H-benzimidazole-4-carboxamide]	57%	78%
CN(C)C(=O)c1ccc(N2CCN(c3nc4c(C(N)=O)cccc4[nH]3)CC2)nc1 [Compound (15), 2-(4-(5-dimethylcarbamoylpyridin-2-yl)piperazin-1-yl)-1H-benzimidazole-4-carboxamide]	44%	70%
NC(=O)c1cc(F)cc2[nH]c(N3CCN(c4ccncn4)CC3)nc12 [Compound (16), 6-fluoro-2-(4-(pyrimidin-4-yl)piperazin-1-yl)-1H-benzimidazole-4-carboxamide]	78%	91%
NC(=O)c1cc(F)cc2[nH]c(N3CCN(c4ncc(F)cn4)CC3)nc12 [Compound (17), 6-fluoro-2-(4-(5-fluoropyrimidin-2-yl)piperazin-1-yl)-1H-benzimidazole-4-carboxamide]	56%	78%
CN(C)C(=O)c1ccc(N2CCN(c3nc4c(C(N)=O)cc(F)cc4[nH]3)CC2)nc1 [Compound (18), 2-(4-(5-(dimethylcarbamoyl)pyridin-2-yl)piperazin-1-yl)-6-fluoro-1H-benzimidazole-4-carboxamide]	56%	77%
N#Cc1cnc(N2CCN(c3nc4c(C(N)=O)cc(F)cc4[nH]3)CC2)nc1 [Compound (19), 2-(4-(5-cyanopyrimidin-2-yl)piperazin-1-yl)-6-fluoro-1H-benzimidazole-4-carboxamide]	77%	93%
CNC(=O)c1cccnc1N1CCN(c2nc3c(C(N)=O)cc(F)cc3[nH]2)CC1 [Compound (20), 6-fluoro-2-(4-(3-methylcarbamoylpyridin-2-yl)piperazin-1-yl)-1H-benzimidazole-4-carboxamide]	39%	67%
NC(=O)c1cc(F)cc2[nH]c(N3CCN(c4ccc(C(F)(F)F)cn4)CC3)nc12 [Compound (21), 6-fluoro-2-(4-(5-trifluoromethylpyridin-2-yl)piperazin-1-yl)-1H-benzimidazole-4-carboxamide]	32%	60%
CNC(=O)c1cnc(N2CCN(c3nc4c(C(N)=O)cc(F)cc4[nH]3)CC2)nc1 [Compound (22), 6-fluoro-2-(4-(5-methylcarbamoylpyrimidin-2-yl)piperazin-1-yl)-1H-benzimidazole-4-carboxamide]	71%	93%
CNC(=O)c1ccc(N2CCN(c3nc4c(C(N)=O)cc(F)cc4[nH]3)CC2)nn1 [Compound (23), 6-fluoro-2-(4-(6-methylcarbamoylpyridazin-3-yl)piperazin-1-yl)-1H-benzimidazole-4-carboxamide]	78%	89%
CNC(=O)c1ccc(N2CCN(c3nc4c(C(N)=O)cc(F)cc4[nH]3)CC2)nc1 [Compound (24), 6-fluoro-2-(4-(5-methylcarbamoylpyridin-2-yl)piperazin-1-yl)-1H-benzimidazole-4-carboxamide]	45%	65%
CNC(=O)c1cnc(N2CCN(c3nc4c(C(N)=O)cc(F)cc4[nH]3)CC2)cn1 [Compound (25), 6-fluoro-2-(4-(5-methylcarbamoylpyrazin-2-yl)piperazin-1-yl)-1H-benzimidazole-4-carboxamide]	79%	92%
CCNC(=O)c1cnc(N2CCN(c3nc4c(C(N)=O)cc(F)cc4[nH]3)CC2)cn1 [Compound (26), 2-(4-(5-ethylcarbamoylpyrazin-2-yl)piperazin-1-yl)-6-fluoro-1H-benzimidazole-4-carboxamide]	80%	94%
CC(C)NC(=O)c1cnc(N2CCN(c3nc4c(C(N)=O)cc(F)cc4[nH]3)CC2)cn1 [Compound (27), 6-fluoro-2-(4-(5-isopropylcarbamoylpyrazin-2-yl)piperazin-1-yl)-1H-benzimidazole-4-carboxamide]	66%	86%
CC(C)(C)NC(=O)c1cnc(N2CCN(c3nc4c(C(N)=O)cc(F)cc4[nH]3)CC2)cn1 [Compound (28), 2-(4-(5-t-butylcarbamoylpyrazin-2-yl)piperazin-1-yl)-6-fluoro-1H-benzimidazole-4-carboxamide]	53%	78%
NC(=O)c1cc(F)cc2[nH]c(N3CCN(c4cnc(C(=O)N5CCCC5)cn4)CC3)nc12 [Compound (29), 6-fluoro-2-(4-(5-(pyrrolin-1-acyl)pyrazin-2-yl)piperazin-1-yl)-1H-benzimidazole-4-carboxamide]	71%	88%
NC(=O)c1cc(F)cc2[nH]c(N3CCN(c4cnc(C(=O)N5CCOCC5)cn4)CC3)nc12 [Compound (30), 6-fluoro-2-(4-(5-(morpholin-4-acyl)pyrazin-2-yl)piperazin-1-yl)-1H-benzimidazole-4-carboxamide]	78%	92%
